Target: T1, CCR9 (Homo sapiens, UniProt P51686)
T1 construct: CCR9-expressing cells (such as a T cell line MOLT-4 cells); host or cells: MOLT-4
T1 sequence (P51686 1-369): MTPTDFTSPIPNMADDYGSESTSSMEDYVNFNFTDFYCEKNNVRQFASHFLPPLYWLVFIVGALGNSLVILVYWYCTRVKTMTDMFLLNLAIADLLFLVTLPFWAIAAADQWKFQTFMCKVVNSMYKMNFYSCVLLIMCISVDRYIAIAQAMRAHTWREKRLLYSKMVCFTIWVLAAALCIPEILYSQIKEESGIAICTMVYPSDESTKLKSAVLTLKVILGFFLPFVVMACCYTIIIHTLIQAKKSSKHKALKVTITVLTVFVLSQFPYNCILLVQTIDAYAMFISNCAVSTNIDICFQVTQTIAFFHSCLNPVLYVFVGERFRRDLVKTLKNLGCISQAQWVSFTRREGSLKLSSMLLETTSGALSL
Assay: chemotaxis (conventional migration) assay and/or calcium mobilization (calcium flux) assay, TECK-induced, MOLT-4 cells
Assay type: cell-based
Conditions: Table 1, assay not specified per compound, read-out: IC50, activity in either or both of the chemotaxis assay and calcium mobilization assays
Protocol: MOLT-4 cells were obtained from the American Type Culture Collection (Manassas, Va.) and cultured in RPMI tissue culture medium supplemented with 10% fetal calf serum (FCS) in a humidified 5% CO2 incubator at 37° C. Recombinant human chemokine protein TECK was obtained from R&D Systems (Minneapolis, Minn.). ChemoTX® chemotaxis microchambers were purchased from Neuro Probe (Gaithersburg, Md.). CyQUANT® cell proliferation kits were purchased from Molecular Probes (Eugene, Oreg.). Calcium indicator dye Fluo-4 AM was purchased from Molecular Devices (Mountain View, Calif.).
Conventional migration assay was used to determine the efficacy of potential receptor antagonists in blocking migration mediated through CCR9. This assay was routinely performed using the ChemoTX® microchamber system with a 5-μm pore-sized polycarbonate membrane. To begin such an assay, MOLT-4 cells were harvested by centrifugation of cell suspension at 1000 PRM on a GS-6R Beckman centrifuge. The cell pellet was resuspended in chemotaxis buffer (HBSS with 0.1% BSA) at 5×10^6 cells/mL. Test compounds at desired concentrations were prepared from 10 mM stock solutions by serial dilutions in chemotaxis buffer. An equal volume of cells and compounds were mixed and incubated at room temperature for 15 minutes. Afterwards, 20 μL of the mixture was transferred onto the porous membrane of a migration microchamber, with 29 μL of 50 nM chemokine TECK protein placed at the lower chamber. Following a 150-minute incubation at 37° C., during which cells migrated against the chemokine gradient, the assay was terminated by removing the cell drops from atop the filter. To quantify cells migrated across the membrane, 5 μL of 7× CyQUANT® solution was added to each well in the lower chamber, and the fluorescence signal measured on a Spectrafluor Plus fluorescence plate reader (TECAN, Durham, N.C.). The degree of inhibition was determined by comparing migration signals between compound-treated and untreated cells. IC50 calculation was further performed by non-linear squares regression analysis using Graphpad Prism (Graphpad Software, San Diego, Calif.).
Calcium flux assay measures an increase in intracellular calcium following ligand-induced receptor activation. In the screen of CCR9 antagonists, it was used as a secondary assay carried out on a FLIPR® machine (Molecular Devices, Mountain View, Calif.). To begin an assay, MOLT-4 cells were harvested by centrifugation of cell suspension, and resuspended to 1.5×10^6 cells/mL in HBSS (with 1% fetal calf serum). Cells were then labeled with a calcium indicator dye Fluo-4 AM for 45 minutes at 37° C. with gentle shaking. Following incubation, cells were pelletted, washed once with HBSS and resuspended in the same buffer at a density of 1.6×10^6 cells/mL. One hundred microliters of labeled cells were mixed with 10 μL of test compound at the appropriate concentrations on an assay plate. Chemokine protein TECK was added at a final concentration of 25 nM to activate the receptor. The degree of inhibition was determined by comparing calcium signals between compound-treated and untreated cells. IC50 calculations were further performed by non-linear squares regression analysis using Graphpad Prism (Graphpad Software, San Diego, Calif.).
Activity is provided as follows for either or both of the chemotaxis assay and/or calcium mobilization assays, described above.

Structure (SMILES) | IC50 [nM]
CC(C)(C)c1ccc(S(=O)(=O)Nc2ccc(Cl)cc2Nc2ccncc2)cc1 | < 500
CC(=O)N(c1ccncc1)c1cc(Cl)ccc1NS(=O)(=O)c1ccc(C(C)(C)C)cc1 | < 500
CC(C)(C)c1ccc(S(=O)(=O)Nc2ccc(Cl)cc2C(O)c2cccnc2)cc1 (stereo not drawn) | < 500
CC(C)(C)c1ccc(S(=O)(=O)Nc2ccc(Cl)cc2C(O)c2cc[n+]([O-])cc2)cc1 (stereo not drawn) | < 500
C=CC(O)(c1cc[n+]([O-])cc1)c1cc(Cl)ccc1NS(=O)(=O)c1ccc(C(C)(C)C)cc1 (stereo not drawn) | < 500
CC(C)(C)c1ccc(S(=O)(=O)Nc2ccc(Cl)cc2C(N)c2cc[n+]([O-])cc2)cc1 (stereo not drawn) | < 500
CC(C)(C)c1ccc(S(=O)(=O)Nc2ccc(Cl)cc2C(F)(F)c2ccncc2)cc1 | < 500
O=S(=O)(Nc1ccc(Cl)cc1C(O)c1ccncc1)c1ccc(-c2cnco2)cc1 (stereo not drawn) | < 500
CCc1ccc(S(=O)(=O)Nc2ccc(Cl)cc2C(O)c2ccncc2)cc1 (stereo not drawn) | < 500
CC(C)(C)c1ccc(S(=O)(=O)Nc2ccc(Cl)cc2C(O)c2ccncc2)cc1 (stereo not drawn) | < 500
CC(C)(C)c1ccc(S(=O)(=O)Nc2ccc(Cl)cc2C(F)(F)c2cc[n+]([O-])cc2)cc1 | < 500
CC(C)(C)c1ccc(S(=O)(=O)Nc2ccc(Cl)cc2C(O)c2ccccc2)cc1 (stereo not drawn) | < 500
CC(C)Oc1ccc(S(=O)(=O)Nc2ccc(Cl)cc2C(O)c2ccncc2)cc1 (stereo not drawn) | < 500
C=C(c1cc[n+]([O-])cc1)c1cc(Cl)ccc1NS(=O)(=O)c1ccc(C(C)(C)C)cc1 | < 500
CO/N=C(\c1ccncc1)c1cc(Cl)ccc1NS(=O)(=O)c1ccc(C(C)(C)C)cc1 | < 500
CO/N=C(/c1ccncc1)c1cc(Cl)ccc1NS(=O)(=O)c1ccc(C(C)(C)C)cc1 | < 500

Same assay, conditions: Table 2, assay not specified per compound, read-out: IC50, activity in either or both of the chemotaxis assay and calcium mobilization assays

Structure (SMILES) | IC50 [nM]
O=S(=O)(Nc1ccc(Cl)cc1-c1nccc2ccccc12)c1ccc(-c2cnco2)cc1 | < 2000
CC(C)(C)c1ccc(S(=O)(=O)Nc2ccc(Cl)cc2-c2nnn[nH]2)cc1 | < 2000
CC(C)(C)c1ccc(S(=O)(=O)Nc2ccc(Cl)cc2-c2cc3ccccc3cn2)cc1 | < 2000
CC(C)(C)c1ccc(S(=O)(=O)Nc2ccc(Cl)cc2-c2nccc3c[n+]([O-])ccc23)cc1 | < 2000
CC(C)(C)c1ccc(S(=O)(=O)Nc2ccc(Cl)cc2-c2c3ccccc3cc[n+]2[O-])cc1 | < 2000
CC(C)(C)c1ccc(S(=O)(=O)Nc2ccc(Cl)cc2-c2nccc3ccccc23)cc1 | < 2000
CC(C)(C)c1ccc(S(=O)(=O)Nc2ccc(Cl)cc2-c2ccccn2)cc1 | < 2000

Same assay, conditions: Table 3, assay not specified per compound, read-out: IC50, activity in either or both of the chemotaxis assay and calcium mobilization assays

Structure (SMILES) | IC50 [nM]
CN(C)C(c1ccncc1)c1cc(Cl)ccc1NS(=O)(=O)c1ccc(C(C)(C)C)cc1 (stereo not drawn) | 500 to 5000
COC(c1cc[n+]([O-])cc1)c1cc(Cl)ccc1NS(=O)(=O)c1ccc(C(C)(C)C)cc1 (stereo not drawn) | 500 to 5000
CC(C)(C)c1ccc(S(=O)(=O)Nc2ccc(Cl)cc2C2(c3cc[n+]([O-])cc3)OCCO2)cc1 | 500 to 5000
CC(C)(C)c1ccc(S(=O)(=O)Nc2ccc(Cl)cc2C(C)(O)c2cc[n+]([O-])cc2)cc1 (stereo not drawn) | 500 to 5000
CC(=O)c1ccc(S(=O)(=O)Nc2ccc(Cl)cc2C(O)c2cccnc2)cc1 (stereo not drawn) | 500 to 5000
CC(C)(C)c1ccc(S(=O)(=O)Nc2ccc(Cl)cc2C(C)(C)c2cc[n+]([O-])cc2)cc1 | 500 to 5000
CO/N=C(\c1ccccc1)c1cc(Cl)ccc1NS(=O)(=O)c1ccc(C)cc1 | 500 to 5000
C=C(c1ccccc1)c1cc(Cl)ccc1NS(=O)(=O)c1ccc(C)cc1 | 500 to 5000

Same assay, conditions: Table 4 (++), assay not specified per compound, read-out: IC50, activity in either or both of the chemotaxis assay and calcium mobilization assays

Structure (SMILES) | IC50 [nM]
COc1ccc(S(=O)(=O)Nc2ccc(Cl)cc2-c2ccccc2OC)cc1 | 2000 to 10000
COc1ccc(S(=O)(=O)Nc2ccc(Cl)cc2-c2ccc(F)cc2)cc1 | 2000 to 10000
COc1ccc(S(=O)(=O)Nc2ccc(Cl)cc2-c2ccc(Cl)cc2)cc1 | 2000 to 10000
COc1ccc(-c2cc(Cl)ccc2NS(=O)(=O)c2ccc(OC)cc2)cc1 | 2000 to 10000
COc1ccc(S(=O)(=O)Nc2ccc(Cl)cc2-c2ccc(C)cc2)cc1 | 2000 to 10000
COc1ccc(S(=O)(=O)Nc2ccc(Cl)cc2-c2ccccc2)cc1 | 2000 to 10000
COc1ccc(S(=O)(=O)Nc2ccc(Cl)cc2-c2cccc(OC)c2)cc1 | 2000 to 10000
CC(C)(C)c1ccc(S(=O)(=O)Nc2ccccc2-c2ncc(-c3ccccc3)[nH]2)cc1 | 2000 to 10000

Source: US7932252B2, “Aryl sulfonamides” (ChemoCentryx, Inc., priority 2004, dated 2011)
